Legend:
Assay in all cases: relative viability (nuclei count vs DMSO), 5 days (fraction); higher = more cells survive
NCI-H1703 = test system: NCI-H1703
In short: (§1)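 Lung cancer cell lines were pin-tool dosed in 1536-well plates on the day after seeding, with either a lone drug or a fixed anchor-drug dose plus five library-drug doses (not always all listed) in √10 steps. Nuclei were counted on 4× images after 5 days. Relative viability is the ratio of treated-well to vehicle-well nuclei counts, with each value a median of duplicate plates.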

IA-LM = test system: IA-LM
In short: as §1

NCI-H520 = test system: NCI-H520
In short: as §1

COR-L 105 = test system: COR-L 105
In short: as §1

A549 = test system: A549
In short: as §1

NCI-H1299 = test system: NCI-H1299
In short: as §1

Calu-6 = test system: Calu-6
In short: as §1

LK-2 = test system: LK-2
In short: as §1

EBC-1 = test system: EBC-1
In short: as §1

NCI-H1355 = test system: NCI-H1355
In short: as §1

LCLC-103H = test system: LCLC-103H
In short: as §1

`COc1nc(C)cnc1NS(=O)(=O)c1cccnc1-c1ccc(-c2nnco2)cc1` [Zibotentan] + CS(=O)(=O)CCNCc1ccc(-c2ccc3ncnc(Nc4ccc(OCc5cccc(F)c5)c(Cl)c4)c3c2)o1 [Lapatinib] (partner 2 µM) was tested, and the relative viability (NCI-H1703; first compound 0.08 µM) was 0.968, the relative viability (NCI-H1703; first compound 0.253 µM) was 0.894 and the relative viability (NCI-H1703; first compound 0.8 µM) was 1.24. For the same compound, the relative viability (NCI-H1703; first compound 2.53 µM) was 0.511, the relative viability (IA-LM; first compound 0.08 µM) was 0.68 and the relative viability (IA-LM; first compound 0.253 µM) was 0.808. For the same compound, the relative viability (IA-LM; first compound 0.8 µM) was 0.9, the relative viability (IA-LM; first compound 2.53 µM) was 0.847 and the relative viability (NCI-H520; first compound 0.08 µM) was 0.885. For the same compound, the relative viability (NCI-H520; first compound 0.253 µM) was 0.809, the relative viability (NCI-H520; first compound 0.8 µM) was 0.853 and the relative viability (NCI-H520; first compound 2.53 µM) was 0.927. The relative viability (COR-L 105; first compound 0.08 µM) was 0.394, the relative viability (COR-L 105; first compound 0.253 µM) was 0.35 and the relative viability (COR-L 105; first compound 0.8 µM) was 0.394. The relative viability (COR-L 105; first compound 2.53 µM) was 0.4, the relative viability (A549; first compound 0.08 µM) was 1.03 and the relative viability (A549; first compound 0.253 µM) was 1.01. The relative viability (A549; first compound 0.8 µM) was 1.05, the relative viability (A549; first compound 2.53 µM) was 1.12 and the relative viability (NCI-H1299; first compound 0.08 µM) was 0.989. For the same compound, the relative viability (NCI-H1299; first compound 0.253 µM) was 0.906, the relative viability (NCI-H1299; first compound 0.8 µM) was 0.959 and the relative viability (NCI-H1299; first compound 2.53 µM) was 0.928. The relative viability (Calu-6; first compound 0.08 µM) was 1.02, the relative viability (Calu-6; first compound 0.253 µM) was 1.06 and the relative viability (Calu-6; first compound 0.8 µM) was 1.16. It also gave a relative viability (Calu-6; first compound 2.53 µM) of 1.14, a relative viability (LK-2; first compound 0.08 µM) of 1.02 and a relative viability (LK-2; first compound 0.253 µM) of 0.885. For the same compound, the relative viability (LK-2; first compound 0.8 µM) was 0.917, the relative viability (LK-2; first compound 2.53 µM) was 0.986 and the relative viability (EBC-1; first compound 0.08 µM) was 0.235. It also gave a relative viability (EBC-1; first compound 0.253 µM) of 0.222, a relative viability (EBC-1; first compound 0.8 µM) of 0.222 and a relative viability (EBC-1; first compound 2.53 µM) of 0.2. The relative viability (NCI-H1355; first compound 0.08 µM) was 1.01, the relative viability (NCI-H1355; first compound 0.253 µM) was 1.03 and the relative viability (NCI-H1355; first compound 0.8 µM) was 0.946. For the same compound, the relative viability (NCI-H1355; first compound 2.53 µM) was 0.977.

`COc1nc(C)cnc1NS(=O)(=O)c1cccnc1-c1ccc(-c2nnco2)cc1` [Zibotentan] + CC1(C)CCC(c2ccc(Cl)cc2)=C(CN2CCN(c3ccc(C(=O)NS(=O)(=O)c4ccc(N[C@H](CCN5CCOCC5)CSc5ccccc5)c(S(=O)(=O)C(F)(F)F)c4)cc3)CC2)C1 [Navitoclax] (partner 0.5 µM) showed a relative viability (NCI-H1703; first compound 0.08 µM) of 1.15, a relative viability (NCI-H1703; first compound 0.253 µM) of 1.08 and a relative viability (NCI-H1703; first compound 0.8 µM) of 1.25. For the same compound, the relative viability (NCI-H1703; first compound 2.53 µM) was 1.03, the relative viability (IA-LM; first compound 0.08 µM) was 0.764 and the relative viability (IA-LM; first compound 0.253 µM) was 0.688. The relative viability (IA-LM; first compound 0.8 µM) was 0.682, the relative viability (IA-LM; first compound 2.53 µM) was 0.699 and the relative viability (NCI-H520; first compound 0.08 µM) was 1.13. The relative viability (NCI-H520; first compound 0.253 µM) was 0.93, the relative viability (NCI-H520; first compound 0.8 µM) was 0.996 and the relative viability (NCI-H520; first compound 2.53 µM) was 1.37. It also gave a relative viability (COR-L 105; first compound 0.08 µM) of 0.696, a relative viability (COR-L 105; first compound 0.253 µM) of 0.649 and a relative viability (COR-L 105; first compound 0.8 µM) of 0.993. For the same compound, the relative viability (COR-L 105; first compound 2.53 µM) was 0.84, the relative viability (A549; first compound 0.08 µM) was 1.45 and the relative viability (A549; first compound 0.253 µM) was 1.18. The relative viability (A549; first compound 0.8 µM) was 1.26, the relative viability (A549; first compound 2.53 µM) was 1.2 and the relative viability (NCI-H1299; first compound 0.08 µM) was 1.05. The relative viability (NCI-H1299; first compound 0.253 µM) was 0.998, the relative viability (NCI-H1299; first compound 0.8 µM) was 1.05 and the relative viability (NCI-H1299; first compound 2.53 µM) was 1.05. The relative viability (Calu-6; first compound 0.08 µM) was 0.832, the relative viability (Calu-6; first compound 0.253 µM) was 0.79 and the relative viability (Calu-6; first compound 0.8 µM) was 0.888. The relative viability (Calu-6; first compound 2.53 µM) was 0.894, the relative viability (LK-2; first compound 0.08 µM) was 1.1 and the relative viability (LK-2; first compound 0.253 µM) was 0.807. For the same compound, the relative viability (LK-2; first compound 0.8 µM) was 0.806, the relative viability (LK-2; first compound 2.53 µM) was 0.828 and the relative viability (EBC-1; first compound 0.08 µM) was 0.487. The relative viability (EBC-1; first compound 0.253 µM) was 0.499, the relative viability (EBC-1; first compound 0.8 µM) was 0.477 and the relative viability (EBC-1; first compound 2.53 µM) was 0.38. For the same compound, the relative viability (NCI-H1355; first compound 0.08 µM) was 0.991, the relative viability (NCI-H1355; first compound 0.253 µM) was 0.968 and the relative viability (NCI-H1355; first compound 0.8 µM) was 0.928. For the same compound, the relative viability (NCI-H1355; first compound 2.53 µM) was 1.1.

Compound `COc1nc(C)cnc1NS(=O)(=O)c1cccnc1-c1ccc(-c2nnco2)cc1` [Zibotentan] + CC(C)C[C@H](NC(=O)[C@H](Cc1ccccc1)NC(=O)c1cnccn1)B(O)O [Bortezomib] (partner 0.002 µM) has a relative viability (LCLC-103H; first compound 0.08 µM) of 1.02, a relative viability (LCLC-103H; first compound 0.253 µM) of 1 and a relative viability (LCLC-103H; first compound 0.8 µM) of 1.27. For the same compound, the relative viability (LCLC-103H; first compound 2.53 µM) was 1.04, the relative viability (NCI-H1703; first compound 0.08 µM) was 0.512 and the relative viability (NCI-H1703; first compound 0.253 µM) was 0.372. For the same compound, the relative viability (NCI-H1703; first compound 0.8 µM) was 0.38, the relative viability (NCI-H1703; first compound 2.53 µM) was 0.346 and the relative viability (IA-LM; first compound 0.08 µM) was 0.791. For the same compound, the relative viability (IA-LM; first compound 0.253 µM) was 0.758, the relative viability (IA-LM; first compound 0.8 µM) was 0.709 and the relative viability (IA-LM; first compound 2.53 µM) was 0.828. The relative viability (NCI-H520; first compound 0.08 µM) was 0.541, the relative viability (NCI-H520; first compound 0.253 µM) was 0.532 and the relative viability (NCI-H520; first compound 0.8 µM) was 0.575. It also gave a relative viability (NCI-H520; first compound 2.53 µM) of 0.821, a relative viability (COR-L 105; first compound 0.08 µM) of 0.819 and a relative viability (COR-L 105; first compound 0.253 µM) of 0.694. The relative viability (COR-L 105; first compound 0.8 µM) was 0.859, the relative viability (COR-L 105; first compound 2.53 µM) was 0.994 and the relative viability (NCI-H1299; first compound 0.08 µM) was 0.999. The relative viability (NCI-H1299; first compound 0.253 µM) was 0.998, the relative viability (NCI-H1299; first compound 0.8 µM) was 0.965 and the relative viability (NCI-H1299; first compound 2.53 µM) was 1.08. For the same compound, the relative viability (Calu-6; first compound 0.08 µM) was 0.929, the relative viability (Calu-6; first compound 0.253 µM) was 0.888 and the relative viability (Calu-6; first compound 0.8 µM) was 1.02. For the same compound, the relative viability (Calu-6; first compound 2.53 µM) was 1.06, the relative viability (EBC-1; first compound 0.08 µM) was 0.704 and the relative viability (EBC-1; first compound 0.253 µM) was 0.566. The relative viability (EBC-1; first compound 0.8 µM) was 0.584, the relative viability (EBC-1; first compound 2.53 µM) was 0.592 and the relative viability (NCI-H1355; first compound 0.08 µM) was 1.2. The relative viability (NCI-H1355; first compound 0.253 µM) was 1.36, the relative viability (NCI-H1355; first compound 0.8 µM) was 1.05 and the relative viability (NCI-H1355; first compound 2.53 µM) was 1.24.

Reference: the supplement of paper PMC10307832
